System: HCT116 colon cancer cells
Test: KSP cellular assay (phospho-histone H3 / MPM2 immunofluorescence)
Assay type: cell-based
Settings: Homo sapiens, HCT-116, 16 hours with drug, percent of cells staining positive for Phos-Histone H3 (ser10) / Phos-MPM2
Procedure: HCT116 colon cancer cells were grown in DMEM:F12 media with 10% heat inactivated FBS at 37 degrees with 5% CO2. Cells were plated at 7,500 cells per well in PDL coated 384-well tissue culture plates. 6 hours later media was removed and new media containing drug was added. Cells were incubated with drug for 16 hours. All further steps were performed at room temperature in the dark. Cells were fixed with 25 ul/well Prefer fixation solution plus 250 nM Hoechst dye and incubated for 30 minutes. The fixation solution was removed and cells were washed with PBS. Cells were then permeabilized with 25 uliwell 0.2% Triton-X in PBS and incubated for 10 minutes. Cells were washed with PBS and then incubated with 25 ul/well PBS containing 3% FBS for 30 minutes. Cells were then stained overnight at 4 degrees with 25 uliwell antibody solution in PBS plus 3% FBS. Antibodies used were Phos-Histone H3 (ser10)-Alexa Flur 488 Conjugate and Phos-MPM2 Texas Red Conjugate. Cells were washed with PBS and then immunofluorescence images captured with HT Pathway microscope. The percent of cells staining positive was calculated and EC50 values for the compounds of the invention that were tested were determined using Excel XLfit.
EC50 Determinations: Dose-response curves were plotted from inhibition data generated each in duplicate, from 8 point serial dilutions of inhibitory compounds. Concentration of compound was plotted against enzyme activity (OD reading). To generate EC50 values, the dose-response curves were then fitted to a standard sigmoidal curve and EC50 values were derived by nonlinear regression analysis.

SMILES	EC50 [nM]
CC(=O)N1N=C(c2cc(F)ccc2F)OC12CCCc1sccc12 (centres unmarked) [compound 101]	> 1000
CC(=O)N1N=C(c2cc(F)ccc2F)OC12CCCc1ccccc12 (centres unmarked) [compound 103]	> 1000
CC(=O)N1N=C(c2cc(F)ccc2F)OC12CCSc1ccccc12 (centres unmarked) [compound 102]	> 1000

Continued, values first:

EC50 [nM]	SMILES
> 1000	CC(=O)N1N=C(c2cc(F)ccc2F)OC12CCOc1ccccc12 (centres unmarked) [compound 105]
> 1000	CC(=O)N1N=C(c2cc(F)ccc2F)OC12COc1ccccc12 (centres unmarked) [compound 104]

Source: patent publication US20110171172A1, “COMPOUNDS FOR INHIBITING KSP KINESIN ACTIVITY” (priority 2007, published 2011)
